Reference: patent US8575163B2, “Pyrrolopyridinylpyrimidin-2-ylamine derivatives” (Merck Patent GmbH, priority 2009, dated 2013)
pIC50: −log10 of the molar value.

The molecules below were run against T1, PDK1 (Homo sapiens, UniProt O15530) (assay: Test for the inhibition of PDK1 (flashplate, 33P-ATP)). Conditions: His6-PDK1 3.4 nM, 4 μM ATP, 30° C., 60 min.
T1 construct: His6 (N)
T1 sequence (O15530 51-556 limits assumed): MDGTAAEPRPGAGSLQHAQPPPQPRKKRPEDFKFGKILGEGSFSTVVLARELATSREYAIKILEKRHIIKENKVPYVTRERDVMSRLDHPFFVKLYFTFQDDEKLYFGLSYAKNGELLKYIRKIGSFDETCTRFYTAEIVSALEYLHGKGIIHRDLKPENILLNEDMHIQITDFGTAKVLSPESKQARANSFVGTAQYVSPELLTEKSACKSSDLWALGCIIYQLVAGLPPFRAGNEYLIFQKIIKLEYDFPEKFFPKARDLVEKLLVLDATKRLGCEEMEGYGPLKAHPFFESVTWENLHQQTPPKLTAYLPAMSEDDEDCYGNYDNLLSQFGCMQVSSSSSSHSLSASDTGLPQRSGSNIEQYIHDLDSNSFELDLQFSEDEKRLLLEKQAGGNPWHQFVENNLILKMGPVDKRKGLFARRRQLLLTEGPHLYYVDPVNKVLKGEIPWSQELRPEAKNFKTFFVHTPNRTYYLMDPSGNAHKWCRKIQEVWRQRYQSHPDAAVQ
Format: biochemical
Protocol: The experimental batches are carried out in a flashplate system with 384 wells/microtitration plate.
In each case, the PDK1 sample His6-PDK1(1-50)(3.4 nM), the PDK1 substrate biotin-bA-bA-[…] (400 nM), 4 μM ATP (with 0.2 μCi of ^33 P-ATP/well) and the test substance in 50 μl of conventional experimental solution per well are incubated at 30° C. for 60 min. The test substances are employed in corresponding concentrations (if desired in a dilution series). The control is carried out without test substance. The reaction is stopped using standard methods and washed. The activity of the kinase is measured via the incorporated radioactivity in top count. In order to determine the non-specific kinase reaction (blank value), the experimental batches are carried out in the presence of 100 nM staurosporin.
The radioactivity (decompositions per minute) of the blank value (no use of test substance in the presence of staurosporin) is subtracted from all other radioactivity values. The controls (kinase activity without test substance) are set equal to 100 percent and all other radioactivity values (after subtracting the blank value) are expressed set in relation thereto (for example in % of the control).
[formula] IC50 values (50% inhibition) are determined with the aid of statistics programmes, such as, for example, RS1.

SMILES | pIC50
CC(O)(c1ccccc1)c1cc(-c2c[nH]c3ncc(-c4cnn(C(F)F)c4)cc23)nc(N)n1 (stereo not drawn) [A40, 1-{2-amino-6-[5-(1-difluoromethyl-1H-pyrazol-4-yl)-1H-pyrrolo[2,3-b]pyridin-3-yl]pyrimidin-4-yl}-1-phenylethanol] | 7.27
CNC(=O)CCn1cc(-c2cnc3[nH]cc(-c4cc(C(C)(OCOC)c5ccccc5)nc(N)n4)c3c2)cn1 (stereo not drawn) [A75, 3-(4-{3-[2-amino-6-(1-methoxymethoxy-1-phenylethyl)pyrimidin-4-yl]-1H-pyrrolo[2,3-b]pyridin-5-yl}pyrazol-1-yl)-N-methylpropionamide] | 7.10
Cn1cc(-c2cnc3[nH]cc(-c4cc(C(C)(O)c5ccccc5F)nc(N)n4)c3c2)cn1 (racemic) [A102, 1-{2-amino-6-[5-(1-methyl-1H-pyrazol-4-yl)-1H-pyrrolo[2,3-b]pyridin-3-yl]-pyrimidin-4-yl}-1-(2-fluorophenyl)ethanol] | 8.00
CC[C@](OCOC)(c1cccc(F)c1)c1cc(-c2c[nH]c3ncc(Br)cc23)nc(N)n1 [A52, 4-(5-bromo-1H-pyrrolo[2,3-b]pyridin-3-yl)-6-[(S)-1-(3-fluorophenyl)-1-methoxymethoxypropyl]pyrimidin-2-ylamine] | < 4.52
COCOC(C)(c1cc(-c2c[nH]c3ncc(Br)cc23)nc(N)n1)c1ccccc1C (stereo not drawn) [A19, 4-(5-bromo-1H-pyrrolo[2,3-b]pyridin-3-yl)-6-(1-methoxymethoxy-1-o-tolylethyl)pyrimidin-2-ylamine] | 5.82
Cn1cc(-c2cnc3[nH]cc(-c4cc(C(C)(O)c5ccc(CO)cc5)nc(N)n4)c3c2)cn1 (stereo not drawn) [A31, 1-{2-amino-6-[5-(1-methyl-1H-pyrazol-4-yl)-1H-pyrrolo[2,3-b]pyridin-3-yl]-pyrimidin-4-yl}-1-(4-hydroxymethylphenyl)ethanol] | 7.36
CCC(OCOC)(c1ccncc1)c1cc(-c2c[nH]c3ncc(Br)cc23)nc(N)n1 (stereo not drawn) [A34, 4-(5-bromo-1H-pyrrolo[2,3-b]pyridin-3-yl)-6-(1-methoxymethoxy-1-pyridin-4-ylpropyl)pyrimidin-2-ylamine] | 6.77
CC(=O)N1CCN(c2ccc(-c3cnc4[nH]cc(-c5cc(C(C)(O)c6ccccc6)nc(N)n5)c4c3)cn2)CC1 (stereo not drawn) [A38, 1-[4-(5-{3-[2-amino-6-(1-hydroxy-1-phenylethyl)pyrimidin-4-yl]-1H-pyrrolo-[2,3-b]pyridin-5-yl}pyridin-2-yl)piperazin-1-yl]ethanone] | 6.85
CC(O)(c1ccccc1)c1cc(-c2c[nH]c3ncc(-c4cnn(CC5CC5)c4)cc23)nc(N)n1 (stereo not drawn) [A83, 1-{2-amino-6-[5-(1-cyclopropylmethyl-1H-pyrazol-4-yl)-1H-pyrrolo[2,3-b]-pyridin-3-yl]pyrimidin-4-yl}-1-phenylethanol] | 7.23
CC(O)(c1cccc(F)c1)c1cc(-c2c[nH]c3ncc(-c4ccc(CO)cc4)cc23)nc(N)n1 (stereo not drawn) [A49, 1-{2-amino-6-[5-(4-hydroxymethylphenyl)-1H-pyrrolo[2,3-b]pyridin-3-yl]-pyrimidin-4-yl}-1-(3-fluorophenyl)ethanol] | 7.44
COCOC(C)(c1ccncc1)c1cc(-c2c[nH]c3ncc(Br)cc23)nc(N)n1 (stereo not drawn) [A56, 4-(5-bromo-1H-pyrrolo[2,3-b]pyridin-3-yl)-6-(1-methoxymethoxy-1-pyridin-4-ylethyl)pyrimidin-2-ylamine] | 6.82
CC(C)C(O)(c1ccccc1)c1cc(-c2c[nH]c3ncc(-c4cnn(C)c4)cc23)nc(N)n1 (stereo not drawn) [A82, 1-{2-amino-6-[5-(1-methyl-1H-pyrazol-4-yl)-1H-pyrrolo[2,3-b]pyridin-3-yl]-pyrimidin-4-yl}-2-methyl-1-phenylpropan-1-ol] | 7.11
Cc1cccc(C(C)(O)c2cc(-c3c[nH]c4ncc(-c5cnn(CCO)c5)cc34)nc(N)n2)c1 (stereo not drawn) [A94, 1-(2-amino-6-{5-[1-(2-hydroxyethyl)-1H-pyrazol-4-yl]-1H-pyrrolo[2,3-b]-pyridin-3-yl}pyrimidin-4-yl)-1-m-tolylethanol] | 7.22
CC(O)(c1ccccc1)c1cc(-c2c[nH]c3ncc(-c4cnn(CCC(=O)N5CCCCC5)c4)cc23)nc(N)n1 (stereo not drawn) [A66, 3-(4-{3-[2-amino-6-(1-hydroxy-1-phenylethyl)pyrimidin-4-yl]-1H-pyrrolo-[2,3-b]pyridin-5-yl}pyrazol-1-yl)-1-piperidin-1-ylpropan-1-one] | 7.04
CCC(O)(c1ccncc1)c1cc(-c2c[nH]c3ncc(-c4cnn(C)c4)cc23)nc(N)n1 (single isomer, unassigned) [A20, 1-{2-amino-6-[5-(1-methyl-1H-pyrazol-4-yl)-1H-pyrrolo[2,3-b]pyridin-3-yl]-pyrimidin-4-yl}-1-pyridin-4-ylpropan-1-ol] | 8.66
COCO[C@](C)(c1cccc(F)c1)c1cc(-c2c[nH]c3ncc(Br)cc23)nc(N)n1 [A73, 4-(5-bromo-1H-pyrrolo[2,3-b]pyridin-3-yl)-6-[(R)-1-(3-fluorophenyl)-1-methoxymethoxyethyl]pyrimidin-2-ylamine] | < 4.52
CNc1nc(-c2c[nH]c3ncc(-c4cnn(CCO)c4)cc23)cc(C(C)(O)c2ccccc2)n1 (single isomer, unassigned) [A91, 1-(6-{5-[1-(2-hydroxyethyl)-1H-pyrazol-4-yl]-1H-pyrrolo[2,3-b]pyridin-3-yl}-2-methylaminopyrimidin-4-yl)-1-phenylethanol] | 7.30
Cn1cc(-c2cnc3[nH]cc(-c4cc(C(C)(O)c5cccnc5)nc(N)n4)c3c2)cn1 (single isomer, unassigned) [A57, 1-{2-amino-6-[5-(1-methyl-1H-pyrazol-4-yl)-1H-pyrrolo[2,3-b]pyridin-3-yl]-pyrimidin-4-yl}-1-pyridin-3-ylethanol] | 7.55
CC(O)(c1ccccc1)c1cc(-c2c[nH]c3ncc(-c4cnn(CCC(=O)NCCN)c4)cc23)nc(N)n1 (stereo not drawn) [A60, N-(2-aminoethyl)-3-(4-{3-[2-amino-6-(1-hydroxy-1-phenylethyl)pyrimidin-4-yl]-1H-pyrrolo[2,3-b]pyridin-5-yl}pyrazol-1-yl)propionamide] | 7.62
CCC(O)(c1ccncc1)c1cc(-c2c[nH]c3ncc(-c4cnn(C)c4)cc23)nc(N)n1 (stereo not drawn) [A28, 1-{2-amino-6-[5-(1-methyl-1H-pyrazol-4-yl)-1H-pyrrolo[2,3-b]pyridin-3-yl]-pyrimidin-4-yl}-1-pyridin-4-ylpropan-1-ol] | 8.16
CC(O)(c1ccccc1)c1cc(-c2c[nH]c3ncc(-c4cnn(CCF)c4)cc23)nc(N)n1 (stereo not drawn) [A81, 1-(2-amino-6-{5-[1-(2-fluoroethyl)-1H-pyrazol-4-yl]-1H-pyrrolo[2,3-b]pyridin-3-yl}pyrimidin-4-yl)-1-phenylethanol] | 7.72
Cn1cc(-c2cnc3[nH]cc(-c4cc(C(C)(O)c5cccnc5)nc(N)n4)c3c2)cn1 (stereo not drawn) [A24, 1-{2-amino-6-[5-(1-methyl-1H-pyrazol-4-yl)-1H-pyrrolo[2,3-b]pyridin-3-yl]-pyrimidin-4-yl}-1-pyridin-3-ylethanol] | 7.25
CC(O)(c1ccccc1)c1cc(-c2c[nH]c3ncc(-c4cnn(CCC(N)=O)c4)cc23)nc(N)n1 (stereo not drawn) [A71, 3-(4-{3-[2-amino-6-(1-hydroxy-1-phenylethyl)pyrimidin-4-yl]-1H-pyrrolo-[2,3-b]pyridin-5-yl}pyrazol-1-yl)propionamide] | 7.82
CCCC(OCOC)(c1ccncc1)c1cc(-c2c[nH]c3ncc(-c4cnn(C)c4)cc23)nc(N)n1 (stereo not drawn) [A36, 4-(1-methoxymethoxy-1-pyridin-4-ylbutyl)-6-[5-(1-methyl-1H-pyrazol-4-yl)-1H-pyrrolo[2,3-b]pyridin-3-yl]pyrimidin-2-ylamine] | 7.25
